Measured values from ChEMBL document CHEMBL3351509, “Identification of 3,6-disubstituted dihydropyrones as inhibitors of human lactate dehydrogenase” (Bioorg Med Chem Lett, 2014).
In brackets after ≈: the same amount, converted by molar mass.

Experiments:
[1] = molecular target: L-lactate dehydrogenase A chain (Homo sapiens, UniProt P00338); assay: Inhibition of human LDH-A by biochemical assay
[2] = Permeability from basolateral to apical side in MDCK cells; format: ADME, cell-based, Canis lupus familiaris; conditions: dog
[3] = Dissociation constant, pKa of the compound; format: physicochemical
[4] = Permeability from apical to basolateral side in MDCK cells; format: ADME, cell-based, Canis lupus familiaris; conditions: dog
[5] = Unbound fraction in human plasma; format: ADME, cell-free
[6] = Unbound fraction in rat plasma; format: ADME, cell-free
[7] = Hepatic clearance in rat liver microsomes; format: ADME
[8] = Hepatic clearance in human liver microsomes; format: ADME
MCF7 [9] = assay: Inhibition of lactate production in human MCF7 cells in absence of serum; format: functional, cell-based
MCF7 [10] = assay: Toxicity in human MCF7 cells assessed as effect on cell viability; format: cell-based
[11] = Kinetic solubility in pH 7.4 buffered aqueous solution; format: physicochemical; conditions: read-out: Kinetic_solubility
MCF7 [12] = assay: Inhibition of lactate production in human MCF7 cells under standard serum conditions; format: functional, cell-based

With `O=C1OC(c2c(Cl)cccc2Cl)CC(O)=C1Sc1ccccc1Cl` (stereo not drawn) as the molecule, how does the IC50 [1] read?
Its IC50 is 5 µM.

With `CCOc1cccc(C2CC(O)=C(Sc3ccccc3Cl)C(=O)O2)c1` (stereo not drawn) as the molecule, how does the IC50 [1] read?
The IC50 was 2.2 µM.

Which IC50 [1] does the source give for `CCOc1ccccc1C1CC(O)=C(Sc2ccccc2Cl)C(=O)O1` (stereo not drawn) here?
The IC50 was 3.8 µM.

What does the source list for `O=C1OC(c2ccccc2)CC(O)=C1Oc1ccccc1Cl` (stereo not drawn)?
Papp B→A [2]: 6 ×10⁻⁶ cm/s; pKa [3]: 3.4; Papp A→B [4]: 4 ×10⁻⁶ cm/s; fraction unbound [5]: 0.006; fraction unbound [6]: 0.013; IC50 [1]: 11 µM

With `O=C1OC(c2ccncc2)CC(O)=C1Sc1ccccc1Cl` (stereo not drawn) as the molecule, how does the IC50 [1] read?
Its IC50 is 43 µM.

Which IC50 [1] does the source give for `Cn1ccc(C2CC(O)=C(Sc3ccccc3Cl)C(=O)O2)n1` (stereo not drawn) here?
Its IC50 is 35 µM.

For `O=C1OC(c2cccnc2)CC(O)=C1Sc1ccccc1Cl` (stereo not drawn), which IC50 [1] is on record?
The IC50 was 15 µM.

With `O=C1CC(c2ccccc2)CC(O)=C1Nc1ccccc1Cl` (stereo not drawn) as the molecule, how does the Papp B→A [2] read?
Its Papp B→A is 10 ×10⁻⁶ cm/s.

And the pKa [3]?
Its pKa is 4.6.

What about the Papp A→B [4] of the same molecule?
The Papp A→B was 4 ×10⁻⁶ cm/s.

What about the IC50 [1] of the same molecule?
Its IC50 is 25 µM.

For `CC(C)C1CC(O)=C(Sc2ccccc2Cl)C(=O)O1` (stereo not drawn), which IC50 [1] is on record?
The IC50 was > 100 µM.

Which IC50 [1] does the source give for `CNC(=O)C1(c2ccccc2)CC(O)=C(Sc2ccccc2Cl)C(=O)O1` (stereo not drawn) here?
The IC50 was 7.4 µM.

Which IC50 [1] does the source give for `O=C1OC2(CCOc3ccccc32)CC(O)=C1Sc1ccccc1Cl` (single isomer, unassigned; enantiomer B) here?
The IC50 was 28 µM.

For `O=C1OC2(CCc3c(Br)cccc32)CC(O)=C1Sc1ccccc1Cl` (single isomer, unassigned; enantiomer A), which IC50 [1] is on record?
The IC50 was 0.35 µM.

For `O=C1OC2(CCCc3ccccc32)CC(O)=C1Sc1ccccc1Cl` (single isomer, unassigned; enantiomer A), which IC50 [1] is on record?
The IC50 was 2.1 µM.

Which results are given for `O=C1NC(c2ccccc2)CC(O)=C1Oc1ccccc1Cl` (stereo not drawn)?
Papp B→A [2]: 12 ×10⁻⁶ cm/s; pKa [3]: 5.3; Papp A→B [4]: 11 ×10⁻⁶ cm/s; fraction unbound [5]: 0.022; fraction unbound [6]: 0.023; IC50 [1]: 11 µM

Which IC50 [1] does the source give for `O=C1OC(c2ccccc2)(C2CC2)CC(O)=C1Sc1ccccc1Cl` (stereo not drawn) here?
The IC50 was 13 µM.

Which IC50 [1] does the source give for `O=C1OC2(CCc3c(-c4ccccc4)cccc32)CC(O)=C1Sc1ccccc1Cl` (single isomer, unassigned; enantiomer b) here?
Its IC50 is 0.61 µM.

With `O=C1OC2(CCc3ccccc32)CC(O)=C1Sc1ccccc1Cl` (single isomer, unassigned; enantiomer B) as the molecule, how does the IC50 [1] read?
The IC50 was 2.6 µM.

With `O=C1OC(c2cccc(Cl)c2)CC(O)=C1Sc1ccccc1Cl` (stereo not drawn) as the molecule, how does the IC50 [1] read?
The IC50 was 3.9 µM.

For `O=C1OC(c2ccccc2)CC(O)=C1Nc1ccccc1Cl` (stereo not drawn), which Papp B→A [2] is on record?
The Papp B→A was 10 ×10⁻⁶ cm/s.

What about the pKa [3] of the same molecule?
Its pKa is 4.2.

What about the Papp A→B [4] of the same molecule?
Its Papp A→B is 8 ×10⁻⁶ cm/s.

And the IC50 [1]?
Its IC50 is 13 µM.

With `O=C1OC(c2ccccn2)CC(O)=C1Sc1ccccc1Cl` (stereo not drawn) as the molecule, how does the IC50 [1] read?
Its IC50 is 3.5 µM.

For `N#Cc1ccccc1C1CC(O)=C(Sc2ccccc2Cl)C(=O)O1` (stereo not drawn), which IC50 [1] is on record?
Its IC50 is > 100 µM.

For `O=C1OC(c2ccc(Cl)cc2)CC(O)=C1Sc1ccccc1Cl` (stereo not drawn), which IC50 [1] is on record?
Its IC50 is 16 µM.

With `N#Cc1cccc(C2CC(O)=C(Sc3ccccc3Cl)C(=O)O2)c1` (stereo not drawn) as the molecule, how does the IC50 [1] read?
The IC50 was 9.5 µM.

For `NC(=O)C1(c2ccccc2)CC(O)=C(Sc2ccccc2Cl)C(=O)O1` (stereo not drawn), which IC50 [1] is on record?
Its IC50 is 6.6 µM.

With `O=C1OC2(CCc3c(Br)cccc32)CC(O)=C1Sc1ccccc1Cl` (single isomer, unassigned) as the molecule, how does the IC50 [1] read?
The IC50 was 2.1 µM.

For `CNC(=O)CC1(c2ccccc2)CC(O)=C(Sc2ccccc2Cl)C(=O)O1` (stereo not drawn), which IC50 [1] is on record?
Its IC50 is 59 µM.

What does the source list for `O=C1CC(c2ccccc2)CC(O)=C1Oc1ccccc1Cl` (stereo not drawn)?
Papp B→A [2]: 16 ×10⁻⁶ cm/s; pKa [3]: 3.7; Papp A→B [4]: 11 ×10⁻⁶ cm/s; fraction unbound [5]: 0.011; fraction unbound [6]: 0.012; IC50 [1]: 26 µM

With `O=C1OC2(CCOc3ccccc32)CC(O)=C1Sc1ccccc1Cl` (single isomer, unassigned; enantiomer A) as the molecule, how does the IC50 [1] read?
Its IC50 is 3.3 µM.

With `Cc1cccc(C)c1C1CC(O)=C(Sc2ccccc2Cl)C(=O)O1` (stereo not drawn) as the molecule, how does the IC50 [1] read?
Its IC50 is 17 µM.

For `O=C1OC(c2ccccc2Cl)CC(O)=C1Sc1ccccc1Cl` (stereo not drawn), which IC50 [1] is on record?
Its IC50 is 5.5 µM.

For `CC1(c2ccccc2)CC(O)=C(Sc2ccccc2Cl)C(=O)O1` (stereo not drawn), which IC50 [1] is on record?
The IC50 was 4.1 µM.

For `O=C1OC(C2CCOCC2)CC(O)=C1Sc1ccccc1Cl` (stereo not drawn), which IC50 [1] is on record?
The IC50 was > 100 µM.

Which results are given for `O=C1OC2(CCc3c(-c4ccccc4)cccc32)CC(O)=C1Sc1ccccc1Cl` (single isomer, unassigned; enantiomer A)?
CLhep predicted [7]: 41 mL/min/kg; CLhep predicted [8]: 20 mL/min/kg; Papp A→B [4]: 1.6 ×10⁻⁶ cm/s; EC50 (MCF7 [9]): 32 µM; Activity (MCF7 [10]): Non-toxic; solubility kinetic [11]: 169 µM (≈ 73.5 µg/mL); fraction unbound [5]: < 0.01; fraction unbound [6]: < 0.01; IC50 [1]: 0.03 µM; EC50 (MCF7 [12]): > 50 µM

With `O=C1NC(c2ccccc2)CC(O)=C1Nc1ccccc1Cl` (stereo not drawn) as the molecule, how does the Papp B→A [2] read?
Its Papp B→A is 30 ×10⁻⁶ cm/s.

And the pKa [3]?
Its pKa is 6.

What about the Papp A→B [4] of the same molecule?
Its Papp A→B is 19 ×10⁻⁶ cm/s.

And the IC50 [1]?
The IC50 was 66 µM.

Which Papp B→A [2] does the source give for `O=C1OC(c2ccccc2)CC(O)=C1Sc1ccccc1Cl` (stereo not drawn) here?
The Papp B→A was 5 ×10⁻⁶ cm/s.

And the pKa [3]?
The pKa was 2.4.

And the Papp A→B [4]?
Its Papp A→B is 3 ×10⁻⁶ cm/s.

And the fraction unbound [5]?
The fraction unbound was 0.008.

What about the fraction unbound [6] of the same molecule?
Its fraction unbound is 0.008.

And the IC50 [1]?
Its IC50 is 4 µM.

Which IC50 [1] does the source give for `O=C1OC(C(=O)O)(c2ccccc2)CC(O)=C1Sc1ccccc1Cl` (stereo not drawn) here?
The IC50 was 46 µM.

Which IC50 [1] does the source give for `O=C1OC2(CCCc3ccccc32)CC(O)=C1Sc1ccccc1Cl` (single isomer, unassigned; enantiomer B) here?
The IC50 was 22 µM.

For `CN(C)C(=O)C1(c2ccccc2)CC(O)=C(Sc2ccccc2Cl)C(=O)O1` (stereo not drawn), which IC50 [1] is on record?
The IC50 was 22 µM.

For `O=C1OC(c2cncnc2)CC(O)=C1Sc1ccccc1Cl` (stereo not drawn), which IC50 [1] is on record?
Its IC50 is 73 µM.

Which IC50 [1] does the source give for `O=C1OC(CO)(c2ccccc2)CC(O)=C1Sc1ccccc1Cl` (stereo not drawn) here?
The IC50 was 5.6 µM.

For `O=C1OC2(CCc3ccccc32)CC(O)=C1Sc1ccccc1Cl` (single isomer, unassigned; enantiomer A), which IC50 [1] is on record?
The IC50 was 0.36 µM.

Which Papp B→A [2] does the source give for `O=C1CC(c2ccccc2)CC(O)=C1Sc1ccccc1Cl` (stereo not drawn) here?
The Papp B→A was 18 ×10⁻⁶ cm/s.

And the pKa [3]?
Its pKa is 3.

And the Papp A→B [4]?
Its Papp A→B is 12 ×10⁻⁶ cm/s.

What about the IC50 [1] of the same molecule?
The IC50 was 4 µM.

What does the source list for `O=C1NC(c2ccccc2)CC(O)=C1Sc1ccccc1Cl` (stereo not drawn)?
Papp B→A [2]: 9 ×10⁻⁶ cm/s; pKa [3]: 4.1; Papp A→B [4]: 7 ×10⁻⁶ cm/s; fraction unbound [5]: 0.003; fraction unbound [6]: 0.006
